Reference: patent US6461997B1, “Triazole sulfones having herbicidal activity” (Monsanto Technology LLC, priority 1999, dated 2002)

Key:
ECHCG (barnyardgrass) = test: Pre-emergence herbicidal activity, warm season; type: in vivo, Echinochloa crus-galli; details: GR80 = lowest tested rate (300, 100, 30, 10 g/ha) with 80% or greater inhibition; approx. 14 days after treating; 30/21° C.
Outline: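 Activity is expressed as the rate giving 80% inhibition, with 300, 100, 30 and 10 g/ha typically tested. An asterisk marks activity short of 80% at the top rate. Warm-season grasses were held at 30/21 °C; cool-season blackgrass and wild buckwheat at 18/13 °C; scoring at about 14 days.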

[1] = system: GALAP (catchweed bedstraw); test: Pre-emergence herbicidal activity, cool season; type: in vivo, Galium aparine; details: lowest tested rate with 80% or greater inhibition; rates 300, 100, 30, 10 g/ha; about 14 days
Outline: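 Seeds sown in sterilised fertilised topsoil received surface-applied compound in 50:50 acetone/water, typically at 300, 100, 30 and 10 g/ha, then greenhouse-grown at 30/21° C (warm-season species) or 18/13° C (cool-season species). Percent inhibition versus untreated plants was scored at about 14 days, giving GR80; an asterisk marks activity short of 80% at the top rate.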

ALOMY (blackgrass) = test: Pre-emergence herbicidal activity, cool season; type: in vivo, Alopecurus myosuroides; details: GR80 = lowest tested rate (300, 100, 30, 10 g/ha) with 80% or greater inhibition; approx. 14 days after treating; 18/13° C.
Outline: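 Seeds were sown in sterilized, fertilized topsoil, covered, and the soil surface was sprayed with compound in 50:50 acetone/water at 300, 100, 30 and 10 g/ha. Pots were held at 30/21 °C day/night (PANMI, DIGSA) or 18/13 °C (ALOMY, POLCO). GR80 came from percent inhibition versus untreated plants at about 14 days.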

SOLNI (black nightshade) = test: Pre-plant incorporated (PPI) herbicidal activity, warm season; type: in vivo, Solanum nigrum; details: for Percent inhibition SOLNI: PPI application
Procedure: (§1) In another set of tests, the pre-plant incorporated (PPI) activity of compounds of this invention was evaluated on the same species as for the pre-emergence tests described above. In the PPI tests the following procedure, designed to simulate PPI application, was used.
(§2) A pre-prepared topsoil mixture (described above) was placed in a pot and compacted to a depth of 1.0 to 1.25 cm from the top of the pot. Seeds of each of several monocotyledonous and dicotyledonous annual plant species were placed on top of the soil. A sufficient quantity of soil to cover the seeds and level fill the pot was weighed into an open container. A known amount of the test compound was dissolved or suspended in an organic solvent and applied by spraying to this cover soil. The cover soil was thoroughly mixed to distribute the test compound throughout the cover soil, and was then applied as a cover layer over the seeds. Untreated soil was used as a cover layer for control pots. After treatment the plants were placed in a greenhouse where they received 0.64 cm of overhead irrigation. All subsequent watering consisted of a light overhead mist and/or subirrigation as needed for germination and growth. Tables 9 and 10 below relate to warm season plant species which were placed after pre-emergence treatment in a greenhouse with a 30/21° C. day/night temperature regime. Tables 11 and 12 below relates to cool season plant species placed after pre-emergence treatment in a greenhouse or growth chamber with an 18/13° C. day/night temperature regime. Only the compounds of Examples 1, 6, 8, 11, 13 and 15-20 were included in PPI tests.
(§3) Approximately 14 days after planting and treating, the plants were observed and herbicidal efficacy recorded as percent inhibition by comparison with untreated plants.

AMARE (redroot pigweed) = test: as above; type: in vivo, Amaranthus retroflexus; details: for Percent inhibition AMARE: PPI application
Procedure: as §1, §2, §3

[2] = system: CHEAL (common lambsquarters); test: as above; type: in vivo, Chenopodium album; details: for Percent inhibition CHEAL: PPI application
Procedure: as §1, §2, §3

[3] = system: PANMI (wild proso millet); test: as above; type: in vivo, Panicum miliaceum; details: for Percent inhibition PANMI: PPI application
Procedure: as §1, §2, §3

SETFA (giant foxtail) = test: as above; type: in vivo, Setaria faberi; details: for Percent inhibition SETFA: PPI application
Procedure: as §1, §2, §3

[4] = system: AGSST (creeping bentgrass); test: Pre-plant incorporated (PPI) herbicidal activity, cool season; type: in vivo, Agrostis stolonifera; details: for Percent inhibition AGSST: weed, PPI application
Procedure: as §1, §2, §3

wheat (TRZAW) = test: Selectivity test, PPI, cool season crop; type: in vivo, Triticum aestivum; details: PPI application
Procedure: as §2, §3
Additional pre-emergence and PPI tests were conducted by the procedures described above, on warm and cool season weed species in the presence of crop species, to assess herbicidal selectivity. Crop species included in warm season tests were corn (Zea mays, ZEAMX), rice (Oryza sativa, ORYSA) and soybean (Glycine max, GLYMX). Crop species included in cool season tests were wheat (Triticum aestivum, TRZAW), barley (Hordeunm vulgare, HORVX) and oilseed rape (Brassica napus, BRSNS).
Tables 15 and 16 relate to pre-emergence and PPI tests respectively on warm season species. Table 17 relates to pre-emergence tests on cool season species.

[5] = pre-plant incorporated, GR80 = lowest tested rate with 80% or greater inhibition, approx. 14 days after treating, 30/21° C.
[6] = pre-plant incorporated, lowest tested rate with 80% or greater inhibition, about 14 days

Compound: CCN(CC)C(=O)n1cnc(S(=O)(=O)C(F)(F)C(F)F)n1 [Example 16]
- Pre-emergence activity (GR80) ECHCG (ECHCG (barnyardgrass)): 100 g/ha
- Pre-emergence activity GR80, GALAP [1]: 100 g/ha
- Pre-emergence activity (GR80) ALOMY (ALOMY (blackgrass)): 100 g/ha
- Percent inhibition SOLNI (SOLNI (black nightshade); 10 g/ha): 100%
- Percent inhibition SOLNI (SOLNI (black nightshade); 100 g/ha): 100%
- Percent inhibition SOLNI (SOLNI (black nightshade); 300 g/ha): 95%
- Percent inhibition SOLNI (SOLNI (black nightshade); 900 g/ha): 100%
- PPI activity (GR80) SOLNI (SOLNI (black nightshade); [5]): 30 g/ha
- Percent inhibition AMARE (AMARE (redroot pigweed); 10 g/ha): 80%
- Percent inhibition AMARE (AMARE (redroot pigweed); 30 g/ha): 100%
- Percent inhibition AMARE (AMARE (redroot pigweed); 100 g/ha): 100%
- Percent inhibition AMARE (AMARE (redroot pigweed); 300 g/ha): 100%
- Percent inhibition AMARE (AMARE (redroot pigweed); 900 g/ha): 100%
- PPI activity (GR80) AMARE (AMARE (redroot pigweed); [5]): 10 g/ha
- Percent inhibition CHEAL ([2]; 10 g/ha): 100%
- Percent inhibition CHEAL ([2]; 30 g/ha): 100%
- Percent inhibition CHEAL ([2]; 100 g/ha): 100%
- Percent inhibition CHEAL ([2]; 300 g/ha): 100%
- Percent inhibition CHEAL ([2]; 900 g/ha): 100%
- PPI activity (GR80) CHEAL [2, 5]: 30 g/ha
- Percent inhibition PANMI ([3]; 10 g/ha): 100%
- Percent inhibition PANMI ([3]; 30 g/ha): 100%
- Percent inhibition PANMI ([3]; 100 g/ha): 100%
- Percent inhibition PANMI ([3]; 300 g/ha): 100%
- Percent inhibition PANMI ([3]; 900 g/ha): 100%
- PPI activity GR80, PANMI [3, 6]: 30 g/ha
- Percent inhibition SETFA (SETFA (giant foxtail); 10 g/ha): 80%
- Percent inhibition SETFA (SETFA (giant foxtail); 30 g/ha): 80%
- Percent inhibition SETFA (SETFA (giant foxtail); 100 g/ha): 100%
- Percent inhibition SETFA (SETFA (giant foxtail); 300 g/ha): 100%
- Percent inhibition SETFA (SETFA (giant foxtail); 900 g/ha): 100%
- PPI activity GR80, SETFA (SETFA (giant foxtail); [6]): 10 g/ha
- PPI activity GR80, AGSST [4, 6]: 10 g/ha
- Percent inhibition AGSST ([4]; 10 g/ha): 100%
- Percent inhibition AGSST ([4]; 30 g/ha): 100%
- Percent inhibition AGSST ([4]; 100 g/ha): 100%
- Percent inhibition AGSST ([4]; 300 g/ha): 100%
- Percent inhibition AGSST ([4]; 900 g/ha): 100%
- Percent inhibition TRZAW (wheat (TRZAW); 10 g/ha): 0%
- Percent inhibition TRZAW (wheat (TRZAW); 30 g/ha): 0%
- Percent inhibition TRZAW (wheat (TRZAW); 100 g/ha): 10%
- Percent inhibition TRZAW (wheat (TRZAW); 300 g/ha): 10%
- Percent inhibition TRZAW (wheat (TRZAW); 900 g/ha): 20%
